Patent publication US9914755B2, “Cyclosporin derivatives wherein the MeBmt sidechain has been cyclized” (Allergan, Inc., priority 2015, dated 2018)
Converted amounts (≈) assume the structure as drawn. Read-outs that look alike come from different tables or passages of the source. Starred links: 1 amine or outer side, 2 acyl side, 3 side chain; linkers in the order of their positions; H or OH if unused. Non-standard residues stand in square brackets, D forms with d. Residues, ends and D or L forms follow the SMILES beside them. X2 = C[C@@H]1CC(O)O[C@H]1[C@H](C(=O)[*:2])N(C)[*:1]; NMeL = CN[C@@H](CC(C)C)C(=O)O; dNMeL = CN[C@H](CC(C)C)C(=O)O; dNMeV = CN[C@@H](C(=O)O)C(C)C; dNMeA = CN[C@H](C)C(=O)O

How the values were obtained:
[1] = biological target: T1, Human recombinant cyclophilin A (CypA) (Homo sapiens, UniProt P62937); experiment: Protease-free PPIase assay, cyclophilin A; type: biochemical
T1 construct: purchased Sigma C3805
Experimental: (§1) Protease-Free PPIase Assay The protease-free PPIase assay measures the rate of cis to trans conversion of a peptide substrate catalyzed by the enzyme cyclophilin A or D. Addition of a cyclophilin inhibitor (e.g., a test compound) slows the catalyzed rate and a Ki value is obtained. 35 mM HEPES pH 7.8, filtered through a 0.2 μm filter. 50 μM DTT was added prior to use each day and then the buffer was stored on ice. […] Human recombinant 6-His tagged cyclophilin D (CypD), prepared by the University of Edinburgh, was used to generate CypD inhibition data. Succinimide-[…]-nitroanilide (SUC-AAPF-pNA) (from Bachem AG, L-1400), 20 mg/ml prepared in 0.5 M LiCl in trifluoroethanol. All readings were taken with an Agilent 8453 Spectrophotometer which consisted of a cuvette holder, stirrer and chiller to maintain a stirred cuvette temperature of 10.0±0.1° C. The temperature was monitored by the use of temperature probe. […] The inhibitor was diluted in 100% DMSO, and then added to the assay to a maximum final concentration of 0.5% DMSO in the assay. […] The absorbance was measured at 330 nm for 300 s or 500 s for blank runs (NOTE: the substrate was added in one quick injection and the measurements started immediately to minimize mixing errors). A first order rate equation was fitted to the absorbance data, for each concentration of inhibitor, to obtain the rate constant (the first 10 to 15 seconds were excluded, as mixing causes errors in this portion of the curve). The catalytic rate was calculated from the enzymatic rate constant minus the background rate constant. An exponential curve was generated using the catalytic rate constants versus the inhibitor concentration to obtain the Ki value for the inhibitor. The Ki value is indicative of the binding affinity between the test compound and cyclophilin A.

[2] = biological target: T2, Human recombinant 6-His tagged cyclophilin D (CypD) (Homo sapiens, UniProt P30405); experiment: Protease-free PPIase assay, cyclophilin D; type: biochemical
T2 construct: 6-His
Experimental: as §1

[3] = Water Solubility Assay (onset of precipitation in buffer); details: 25 °C, pH 7.4, aqueous buffer, kinetic from dmso stock
Experimental: (§2) The aqueous solubility of a compound of Formula I in buffer (pH 7.8) was measured by recording the onset of precipitation of the compound as a function of increasing concentration. The onset of precipitation, if it occurred, was detected by an increase in absorbance at 650 nm.
(§3) Stock solutions of Control and Test Compounds: 10 mM in 100% DMSO.
(§4) 10 mM stock solutions of control and test compounds were prepared in 100% DMSO.
(§5) Assay buffer (247.5 μl) was placed into a flat bottomed transparent 96-well plate. For blank samples, DMSO (2.5 μl) was added. For test and control samples, 2.5 μl of the appropriate DMSO dilution stocks were added to the appropriate well. All test and control compounds were performed in triplicate.
(§6) The plates were sealed with adhesive plate seal and shaken at 250 rpm at 25° C. for 18 h on a plate shaker. After incubation, the plate seals were taken off and any bubbles observed in wells removed. The plates were read on a SpectraMaxM5 with a 5 s pre-shake at 650 nm.
(§7) Data files were transferred to the appropriate worksheet and the solubility range of the compounds was calculated from the data.

calcineurin = biological target: T3, calcineurin (Homo sapiens, UniProt P62937+P63098+Q08209); experiment: Calcineurin Phosphatase (CaN) Assay; type: biochemical; details: in the presence of CypA, 1:1 complex of inhibitor with CypA
T3 construct: purchased Enzo Life Sciences BML-AK804
Text: Calcineurin Phosphatase (CaN) Assay
The calcineurin phosphatase assay is a means for estimating the immunosuppressive potential of a test compound. Calcineurin is a serine-threonine protein phosphatase that on activation dephosphorylates members of the nuclear factor of activated T cells (NFAT), which are important in T lymphocyte activation.
To investigate the immunosuppressive potential of exemplary compounds of Formula I, which are cyclosporin analogs, their ability to inhibit calcineurin activity was measured in the presence and absence of CypA.
The CaN assay kit used is based on a colorimetric assay for measuring calcineurin phosphatase activity, and it is commercially available (Enzo Life Sciences and Calbiochem). Calmodulin is also required for calcineurin activity, and RII phosphopeptide is used as an efficient peptide substrate for calcineurin. […] The detection of free phosphate released is based on the classic Malachite green assay.
Enzo Life Sciences CaN Assay Kit: BML-AK804
For samples ‘without CypA’, a 4-point dilution series of the inhibitor was prepared in duplicate to obtain a final assay concentration of 10, 1, 0.1 and 0.01 μM. For samples ‘with CypA’, a 7-point dilution series was prepared to obtain a 1:1 complex of the inhibitor with CypA; the inhibitor and CypA final assay concentrations of 10, 3.33, 1.11, 0.37, 0.12, 0.04, 0.014 μM were prepared.
using the half area 96 well plates supplied with the kit, 10 μl UPW was added to duplicate wells to provide the non-inhibited control. 10 μl of the inhibitor or the inhibitor/CypA complex was added to the appropriate sample wells. 25 μl of the 2× assay buffer with calmodulin (CaM) was added to all wells, then 5 μl of calcineurin phosphatase (CaN) was added to all wells (40 U per well final concentration) except duplicate ‘no calcineurin blank’ wells to which 5 μL 1× assay buffer was added. The assay plate was placed in an oven at 30° C. for 15 minutes to equilibrate to the reaction temperature. The reaction was started by the addition of 10 μl RII-peptide (0.15 mM final concentration). The reaction was allowed to proceed at 30° C. for a time period in which the reaction is linear for about 60 minutes. The reaction was then terminated by adding 100 μl of the Malachite Green reagent. The color was allowed to develop for 15-30 minutes at room temperature before the absorbance at 620 nm was measured using a plate reader (Molecular Devices—SpectraMax M5). The data were analyzed by subtracting ‘no calcineurin blank’ from all the absorbance readings and plotting the background corrected absorbances against Log10 inhibitor concentration. A sigmoidal-dose response curve was fitted to the data using GraphPad Prism Software.
It exerts its immunosuppressive activity by binding to CypA to form a complex, which then binds to calcineurin and thereby inhibits calcineurin activity.

physchem = details: 25 °C, pH 7.4, aqueous buffer, kinetic from dmso stock
Experimental: as §2, §3, §4, §5, §6, §7

[4] = human recombinant CypA, 10 °C, SUC-AAPF-pNA substrate, read-out: CypA Protease-free PPIase Assay Ki
[5] = human recombinant 6-His CypD, 10 °C, SUC-AAPF-pNA substrate, read-out: CypD Protease-free PPIase Assay Ki

T1 sequence (P62937 whole entry): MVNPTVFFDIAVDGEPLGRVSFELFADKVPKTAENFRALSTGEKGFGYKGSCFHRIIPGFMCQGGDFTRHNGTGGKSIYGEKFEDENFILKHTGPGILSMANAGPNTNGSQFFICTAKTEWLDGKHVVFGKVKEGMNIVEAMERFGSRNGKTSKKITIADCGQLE
T2 sequence (P30405 30-207): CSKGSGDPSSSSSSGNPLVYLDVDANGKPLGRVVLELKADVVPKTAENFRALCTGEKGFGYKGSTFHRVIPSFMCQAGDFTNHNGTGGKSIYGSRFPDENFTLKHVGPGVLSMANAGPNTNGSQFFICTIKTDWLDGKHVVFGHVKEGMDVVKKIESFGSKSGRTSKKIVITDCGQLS

Ki [1, 4] [nM] | Ki [2, 5] [nM] | IC50 (calcineurin) [nM] | solubility at 18 h (physchem) [µM] | Structure (SMILES) | Ki [1] [nM] | Ki [2] [nM] | solubility at 18 h [3] [µM]
– | – | – | – | CC(C)C[C@@H]1C(=O)N(C)[C@H](CC(C)C)C(=O)N(C)[C@H](C(C)C)C(=O)N(C)[C@H]([C@@H]2OCC[C@H]2C)C(=O)N[C@H](C)C(=O)N(C)CC(=O)N(C)[C@@H](CC(C)C)C(=O)N[C@H](C(C)C)C(=O)N(C)[C@H](CC(C)C)C(=O)N[C@H](C)C(=O)N[C@@H](C)C(=O)N1C [Compound 9, [(2S)-2-(methylamino)-2-[(2R,3R)-3-methyltetrahydrofuran-2-yl]acetic acid]^1 cyclosporin B] | 8600 | 200 | > 100
20.4 | 8.4 | > 10000 | > 100 | CC(C)C[C@@H]1C(=O)N(C)[C@H](CC(C)C)C(=O)N(C)[C@H](C(C)C)C(=O)N(C)[C@H]([C@@H]2OC(O)C[C@H]2C)C(=O)N[C@H](C(C)C)C(=O)N(C)[C@H](C)C(=O)N(C)[C@@H](CC(C)C)C(=O)N[C@H](C(C)C)C(=O)N(C)[C@H](CC(C)C)C(=O)N[C@H](C)C(=O)N[C@@H](C)C(=O)N1C (stereo partly drawn) [Compound 14, [(2S)-2-[(2R,3R)-5-Hydroxy-3-methyl-tetrahydrofuran-2-yl]-2-(methylamino)acetic acid]^1 [(R)-methyl-Sar]^3 cyclosporin D] (cyclo(A[dNMeL][dNMeL][dNMeV][X2][dV][dNMeA][NMeL][dV][dNMeL][dA])) | – | – | –
400 | 81 | > 10000 | 75 (≈ 89.1 µg/mL) | CC(C)C[C@@H]1C(=O)N(C)[C@H](CC(C)C)C(=O)N(C)[C@H](C(C)C)C(=O)N(C)[C@H]([C@@H]2OCC[C@H]2C)C(=O)N[C@H](C(C)C)C(=O)N(C)CC(=O)N(C)[C@@H](CC(C)C)C(=O)N[C@H](C(C)C)C(=O)N(C)[C@H](CC(C)C)C(=O)N[C@H](C)C(=O)N[C@@H](C)C(=O)N1C [Compound 7, [(2S)-2-(methylamino)-2-[(2R,3R)-3-methyltetrahydrofuran-2-yl]acetic acid]^1 cyclosporin D] | – | – | –
81 | 9.7 | > 10000 | 75 (≈ 90.2 µg/mL) | CC[C@@H]1C(=O)N(C)[C@@H](CC(C)C)C(=O)N[C@H](C(C)C)C(=O)N(C)[C@H](CC(C)C)C(=O)N[C@H](C)C(=O)N[C@@H](C)C(=O)N(C)[C@H](CC(C)C)C(=O)N(C)[C@H](CC(C)C)C(=O)N(C)[C@H](C(C)C)C(=O)N(C)[C@H]([C@@H]2OCC[C@H]2C)C(=O)N[C@H](CC)C(=O)N1C [Compound 1, [(2S)-2-(methylamino)-2-[(2R,3R)-3-methyltetrahydrofuran-2-yl]acetic acid]^1 [(R)-ethyl-Sar]^3 cyclosporin A] | – | – | –
